From patent US20240140953A1, “INHIBITORS OF MENIN-MLL INTERACTION” (BIOMEA FUSION, INC., priority 2018, published 2024)
Read-outs that look alike come from different tables or passages of the source.

Legend:
[1] = tested on: RS4-11 (MLL-AF4); assay: LTP assay, CellTiterGlo, T4-T14 (Example 103), RS4-11; assay type: cell-based; settings: for IC50: Homo sapiens
Method: (§1) The day of the experiment (T0) all the cell line suspensions were counted by Cell Viability Analyser, Vi-CELL and properly diluted with fresh medium to obtain the cell density reported in the Test System paragraph.
(§2) Cells were tested after 4 passages after thawing.
(§3) 200 μL/well and 150 μL/well of cell suspension were added into the 0.4 μL/well and 0.3 μL/well compound plates, respectively. • Cell plate containing 200 μL/well suspension was incubated at 37° C. in a humidified incubator with 5% CO2. • From each well of the 150 μL/well cell assay plate, 100 μL were harvested and transferred into a 96-well Optiplate (Perkin Elmer, Cat. n. 6005290) and cell viability was measured as described in 4.3 paragraphs (T0).
(§4) After four days in culture (T4) 150 μL/well of fresh medium were added into a new 0.3 μL/well copy compound plate. • From each well of the 200 μL/well cell assay plate: • 100 μL were sampled for the cell viability measurement as described in 4.3 paragraphs (T4). • 50 μL were harvested and added to the 150 μL/well compound plate prepared as described in the first point to dilute 1:4 the cell suspension. • The cell assay plate diluted and containing 200 μL/well suspension were incubated at 37° C. in a humidified incubator with 5% Co2.
(§5) At T7-T11-T14 it was proceeded as described in T4, with the exception that no further cell dilution was carried out at T14.
(§6) Plates containing the samples to be tested were equilibrated at room temperature for approximately 30 min and then 30 μL/well of the Promega CellTiterGlo® reagent were added.
(§7) Contents will be mixed for 5 min on an orbital shaker to induce cell lysis and then incubated at room temperature for an additional 10 min to stabilize the luminescent signal.
(§8) Luminescence was read by using VictorV (Perkin Elmer) multilabel plate reader using the standard protocol for luminescence in 96 well plate.
(§9) Data were expressed as % of inhibition compared to the 0.2% DMSO negative control, and was calculated as follows: […]
(§10) CRCs were analysed by GraphPad and IC50 values were calculated by non-linear regression using 4 parameter-logistic equation. IC50 (μM) values were reported in the final data table.
(§11) The curve fittings were performed leaving free all the parameters. Any constrain were reported in the results table.

[2] = tested on: HL-60; assay: LTP assay, CellTiterGlo, T4-T14 (Example 103), HL-60; assay type: cell-based; settings: for IC50: Homo sapiens
Method: as §1, §2, §3, §4, §5, §6, §7, §8, §9, §10, §11

[3] = tested on: HL-60; assay: Proliferation study, CellTiterGlo, 4 days (Example 102), HL-60; assay type: cell-based; settings: HL-60, 4 days treatment
From the text: (§12) The objective of the study was to evaluate the ability of representative compounds of the present invention, inhibitors of Menin/MLL interaction to inhibit cell proliferation. The proliferation inhibitory effect was investigated in two human MLL-leukemia cells selected on the bases of MLL fusion protein and listed in Table 102. HL-60 cell line was used as negative control.
(§13) ATP is present in all metabolically active cells and is considered as a marker for cell viability and proliferation. The metabolic cell activity was determined using the CellTiter-Glo kit from Promega, an ATP monitoring system based on the production of luminescence by the reaction of ATP with added UltraGlo® recombinant luciferase (Kawano et al., 2016), according to the supplier's experimental recommendations.
(§14) The described assay evaluates the ability of 4 representative compounds to inhibit the cell proliferation in the human MLL-leukemia cells plus a negative control cell line.
(§15) The assay provides potency values (IC50) for each test compound at a single time point Day 4 (T4).
(§16) Seven concentrations of the compounds (2.00E-05-6.67E-06-2.22E-06-7.41E-07-2.47E-07-8.23E-08-2.74E-08M), were assessed in duplicate in an individual test occasion in all the cell lines. MI-503 (Borkin et al., 2015) was used as reference compound and was tested at the same concentrations as the NCEs. 100% of proliferation is represented by the untreated cells (0.2% DMSO). The cell growth was monitored up to 4 days in culture.
(§17) MV4-11, MOLM-13 and HL-60 cells (see Table 2) were maintained in RPMI-1640 medium (Invitrogen, Cat. n. 618700, Batch n. 1965930) supplemented with 10% of Heat Inactivated FBS (Invitrogen, Cat n. 10500, Batch n. 08Q8078K) and 1% Pen-Strep (Invitrogen, Cat. N. 15140, Batch n. 1910859) and cultured at 37° C. in a humidified incubator with 5% CO2. All the cell lines grow in suspension and the cell density was maintained in a range of 2×10^5-1×10^6 viable cells/ml. Cells were pelleted at 130 g×5 min and conditioned medium was used to dilute the cell suspension.
(§18) Test items were dissolved in glass vials at 10 mM in DMSO with purity ≥99.9% (Sigma, D8418, batch n. SHBH4245V) and stored at −20° C. in 1.5 mL Eppendorf tubes.
(§19) Serial dilutions 1 to 3 in DMSO 100% were prepared starting from a 10 mM stock solutions to generate 7 points concentration response curve (CRC).
(§20) For each plate to test, one 0.4 μL copy plate and four 0.3 μL copy plates were then stamped into 96-well plates not treated for cell adhesion (Sarstedt—cat.no. 82.1581.001) by acoustic liquid Handling, Echo, at a concentration which was 500 fold the final assay concentration. Stamped plates were stored at −20° C. The final concentrations for the reference compound, MI-503, and the test items were: 2.00E-05, 6.67E-06, 2.22E-06, 7.41E-07, 2.47E-07, 8.23E-08 and 2.74E-08 M.
(§21) Cells were plated in 96-well flat bottom microtiter plates at cell density of 15,000 cells/ml for HL-60, 1000 cells/ml for MOLM-13 and 10,000 cell/ml for MV4-11. Cells were treated with 0.2% DMSO (Sigma, D8418, batch n. SHBH4245V) or serial dilutions of compounds (0.027 μM-20 μM) in DMSO (0.2% final concentration). Cells were incubated in a 5% CO2 incubator at 37° C. for 4 days. A CellTiterGlo viability assay (Promega) was employed. Luminescence was read by using VictorV (Perkin Elmer) multilabel plate reader using the standard protocol for luminescence in 96 well plate. The experiment was performed in duplicate.
as §9
(§22) CRCs were analysed by GraphPad and IC50 values were calculated by non-linear regression using 4 parameter-logistic equation. IC50 (μM) values were reported in the final data table. The curve fittings were performed leaving free all the parameters. Any constrain were reported in the results table.

[4] = tested on: MOLM-13 (MLL-AF9); assay: LTP assay, CellTiterGlo, T4-T14 (Example 103), MOLM-13; assay type: cell-based, human; settings: for IC50: Homo sapiens
Method: as §1, §2, §3, §4, §5, §6, §7, §8, §9, §10, §11

[5] = tested on: MOLM-13 (MLL-AF9); assay: Proliferation study, CellTiterGlo, 4 days (Example 102), MOLM-13; assay type: cell-based, human; settings: MOLM-13, 4 days treatment
From the text: as §12, §13, §14, §15, §16, §17, §18, §19, §20, §21, §9, §22

[6] = tested on: MV4-11 (MLL-AF4); assay: Proliferation study, CellTiterGlo, 4 days (Example 102), MV4-11; assay type: cell-based, human; settings: MV4-11, 4 days treatment
From the text: as §12, §13, §14, §15, §16, §17, §18, §19, §20, §21, §9, §22

[7] = tested on: MV4-11 (MLL-AF4); assay: LTP assay, CellTiterGlo, T4-T14 (Example 103), MV4-11; assay type: cell-based, human; settings: for IC50: Homo sapiens
Method: as §1, §2, §3, §4, §5, §6, §7, §8, §9, §10, §11

[8] = RS4-11, 96 h, RS4-11 (MLL-AF4), T4 (Day 4), read-out: IC50 T4 (Day 4)
[9] = RS4-11, RS4-11 (MLL-AF4), T7, read-out: IC50 T7
[10] = RS4-11, RS4-11 (MLL-AF4), T11, read-out: IC50 T11
[11] = HL-60, 96 h, HL-60, T4 (Day 4), read-out: IC50 T4 (Day 4)
[12] = HL-60, HL-60, T7, read-out: IC50 T7
[13] = HL-60, HL-60, T11, read-out: IC50 T11
[14] = HL-60, HL-60, T14, read-out: IC50 T14
[15] = MOLM-13, 96 h, MOLM-13 (MLL-AF9), T4 (Day 4), read-out: IC50 T4 (Day 4)
[16] = MOLM-13, MOLM-13 (MLL-AF9), T7, read-out: IC50 T7
[17] = MOLM-13, MOLM-13 (MLL-AF9), T11, read-out: IC50 T11
[18] = MOLM-13, MOLM-13 (MLL-AF9), T14, read-out: IC50 T14
[19] = MV4-11, 96 h, MV4-11 (MLL-AF4), T4 (Day 4), read-out: IC50 T4 (Day 4)
[20] = MV4-11, MV4-11 (MLL-AF4), T7, read-out: IC50 T7
[21] = MV4-11, MV4-11 (MLL-AF4), T11, read-out: IC50 T11
[22] = MV4-11, MV4-11 (MLL-AF4), T14, read-out: IC50 T14

Structure (SMILES)	IC50 [1, 8] [µM]	IC50 [1, 9] [µM]	IC50 [1, 10] [µM]	IC50 [2, 11] [µM]	IC50 [2, 12] [µM]	IC50 [2, 13] [µM]	IC50 [2, 14] [µM]	IC50 [4, 15] [µM]	IC50 [4, 16] [µM]	IC50 [4, 17] [µM]	IC50 [4, 18] [µM]	IC50 [7, 19] [µM]	IC50 [7, 20] [µM]	IC50 [7, 21] [µM]	IC50 [7, 22] [µM]	other results
Cc1c(CN2CCC(Nc3ncnc4sc(CC(F)(F)F)cc34)CC2)ccc2c1cc(C#N)n2Cc1cn[nH]c1 [MI-503, reference compound]																inhibition of cell viability (in words) ([1]; RS4;11, LTP assay): fully inhibited cell viability; inhibition of cell viability (in words) ([2]; HL-60, LTP assay): fully inhibited cell viability; HL-60 pIC50 ([3]; CellTiterGlo): 6.38; IC50 ([3]; CellTiterGlo, read-out: HL-60 IC50): 0.42 µM; HL-60 % max ([3]; maximal inhibition): 103%; inhibition of cell viability (in words) ([4]; MOLM-13, LTP assay): fully inhibited cell viability; MOLM-13 (MLL-AF9) pIC50 ([5]; CellTiterGlo): 6.63; IC50 ([5]; CellTiterGlo, read-out: MOLM-13 (MLL-AF9) IC50): 0.23 µM; MOLM-13 (MLL-AF9) % max ([5]; maximal inhibition): 98%; MV4-11 (MLL-AF4) pIC50 ([6]; CellTiterGlo): 6.73; IC50 ([6]; CellTiterGlo, read-out: MV4-11 (MLL-AF4) IC50): 0.19 µM; MV4-11 (MLL-AF4) % max ([6]; maximal inhibition): 100%; inhibition of cell viability (in words) ([7]; MV4-11, LTP assay): fully inhibited cell viability
Cc1nccc2[nH]c(-c3ccc(NC(=O)Cc4cc(-c5cccnc5)n[nH]4)cc3)nc12 [Compound 33]	> 5	> 5	> 5	> 5	> 5	> 5	> 5	> 5	> 5	> 5	> 5	> 5	> 5	3.31	2.34	
Cc1cn(-c2nccc3[nH]c(-c4ccc(NC(=O)Cc5cc(-c6cccnc6)n[nH]5)cc4)nc23)cn1 [Compound 31, N-[4-[4-(4-methylimidazol-1-yl)-1H-imidazo[4,5-c]pyridin-2-yl]phenyl]-2-(3-pyridin-3-yl-1H-pyrazol-5-yl)acetamide]	> 5	1.35	> 5	> 5	> 5	> 5	> 5	> 5	> 5	> 5	> 5	> 5	> 5	2.63	2.19	
